Measurements published in patent US20250305055A1, “PROGNOSTIC/PREDICTIVE BREAST CANCER SIGNATURE” (priority 2021, published 2025).

What follows are molecules tested on breast cancer cell lines BT20, MDA-MB-231 and SUM-i 159 (assay: Drug response: breast cancer cell line proliferation inhibition). Settings: same dose as in the triple-drug combinations, BT20, MDA-MB-231, SUM-i 159, FIG. 9.
Assay type: cell-based
Procedure: The breast cancer cell lines BT20, MDA-MB-231 and SUM-i 159 were treated with HDAC inhibitor (MS275), ISP inhibitor (17-AAG), mTOR inhibitor (Niclosamide), polo-like kinase inhibitor (1312536) and histone demethylase inhibitor (GSK-J4).

Structure (SMILES)	inhibition of breast cancer cell line proliferation, single treatment
CCOC(=O)CCNc1cc(N2CCc3ccccc3CC2)nc(-c2ccccn2)n1 [GSK-J4]	ineffective
Nc1ccccc1NC(=O)c1ccc(CNC(=O)OCc2cccnc2)cc1 [MS275, Entinostat]	ineffective
O=C(Nc1ccc([N+](=O)[O-])cc1Cl)c1cc(Cl)ccc1O [Niclosamide]	ineffective
CC[C@@H]1C(=O)N(C)c2cnc(Nc3ccc(C(=O)NC4CCN(C)CC4)cc3OC)nc2N1C1CCCC1 [compound 1312536]	ineffective
